# Biological target: T1, soluble guanylate cyclase (sGC) (Homo sapiens, UniProt Q02108+Q02153)
# T1 construct: endogenously expressing soluble guanylate cyclase (sGC); endogenous in cells; host or cells: HEK293
# T1 sequence (Q02108 1-690): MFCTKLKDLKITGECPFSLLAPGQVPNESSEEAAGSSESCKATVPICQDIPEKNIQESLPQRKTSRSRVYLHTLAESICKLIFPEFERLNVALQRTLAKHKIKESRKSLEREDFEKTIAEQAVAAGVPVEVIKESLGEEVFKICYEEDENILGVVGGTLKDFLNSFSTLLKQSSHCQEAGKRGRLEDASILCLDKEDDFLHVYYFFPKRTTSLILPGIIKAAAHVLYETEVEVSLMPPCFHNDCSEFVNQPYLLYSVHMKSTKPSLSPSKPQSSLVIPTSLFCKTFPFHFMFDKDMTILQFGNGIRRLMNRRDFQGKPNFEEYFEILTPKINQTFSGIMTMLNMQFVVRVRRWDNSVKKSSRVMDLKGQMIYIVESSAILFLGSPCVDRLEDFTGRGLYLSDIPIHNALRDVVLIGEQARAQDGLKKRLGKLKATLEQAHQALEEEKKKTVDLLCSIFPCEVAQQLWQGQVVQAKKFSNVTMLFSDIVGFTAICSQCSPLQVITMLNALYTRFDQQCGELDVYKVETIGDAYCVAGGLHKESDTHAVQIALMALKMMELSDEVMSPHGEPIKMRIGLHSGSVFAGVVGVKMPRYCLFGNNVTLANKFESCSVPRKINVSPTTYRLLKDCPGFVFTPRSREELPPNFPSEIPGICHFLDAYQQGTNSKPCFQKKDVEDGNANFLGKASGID
# T1 sequence (Q02153 1-619): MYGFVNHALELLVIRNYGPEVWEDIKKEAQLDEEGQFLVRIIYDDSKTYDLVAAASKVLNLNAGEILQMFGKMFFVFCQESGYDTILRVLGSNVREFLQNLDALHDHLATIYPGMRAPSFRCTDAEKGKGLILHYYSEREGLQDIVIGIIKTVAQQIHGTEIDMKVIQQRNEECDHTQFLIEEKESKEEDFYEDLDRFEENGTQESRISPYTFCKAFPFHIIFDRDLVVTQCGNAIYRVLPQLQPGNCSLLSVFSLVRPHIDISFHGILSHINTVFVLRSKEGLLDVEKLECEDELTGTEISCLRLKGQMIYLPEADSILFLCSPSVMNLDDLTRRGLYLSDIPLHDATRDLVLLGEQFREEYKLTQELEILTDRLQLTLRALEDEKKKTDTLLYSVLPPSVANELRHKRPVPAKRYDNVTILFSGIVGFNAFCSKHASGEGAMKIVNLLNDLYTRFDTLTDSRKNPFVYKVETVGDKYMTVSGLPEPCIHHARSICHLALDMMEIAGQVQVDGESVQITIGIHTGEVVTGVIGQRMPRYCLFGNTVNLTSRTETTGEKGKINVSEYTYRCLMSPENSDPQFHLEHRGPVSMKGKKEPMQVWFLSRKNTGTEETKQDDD
# Test: sGC-HEK-cGMP assay with LC/MS detection (Example 2A)
# Assay type: cell-based
# Conditions: HEK293 cells, 10 μM DETA-NONOate, 20 min; concentration eliciting 50% of high control response (30 μM Compound Y); read-out: Absolute EC50 (nM) - binned
# Description: Human embryonic kidney cells (HEK293), endogenously expressing soluble guanylate cyclase (sGC), were used to evaluate the activity of test compounds. Compounds stimulating the sGC enzyme should cause an increase in the intracellular concentration of cGMP. HEK 293 cells were seeded in Dulbecco's Modification of Eagle's Medium supplemented with fetal bovine serum (10% final) and penicillin (100 U/mL)/streptomycin (100 μg/mL) in a 50 μL, volume at a density of 1.5×10^4 cells/well in a poly-D-lysine coated 384 well flat bottom plate. Cells were incubated overnight at 37° C. in a humidified chamber with 5% CO2. Medium was aspirated and cells were washed with 1× Hank's Buffered Saline Salt Solution (50 μL). Cells were then incubated for 15 minutes at 37° C. with 50 μL of a 0.5 mM 3-isobutyl-1-methylxanthine (IBMX) solution. Test article and Diethylenetriamine NONOate (DETA-NONOate) solutions (x μM concentration for test article solution and 10 μM concentration for DETA-NONOate solution; wherein x is one of the following concentrations);
# were then added to the assay mixture and the resulting mixture incubated at 37° C. for 20 minutes. After the 20 minute incubation, the assay mixture was aspirated and 10% acetic acid containing 150 ng/mL+3-cGMP (internal standard for LCMS) (50 μL) was added to the cells. The plate was incubated at 4° C. for 30 minutes in the acetic acid solution to stop the reaction and lyse the cells. The plates were then centrifuged at 1,000 g for 3 minutes at 4° C. and the supernatant transferred to a clean reaction plate for LCMS analysis.
# cGMP concentrations were determined from each sample using the LCMS conditions below (Table 2) and calculated standard curve. The standard curve was prepared in 10% acetic acid with 150 ng/mL+3cGMP (isotopically labelled cGMP with a weight 3 units higher than wild type) with the following final concentrations of cGMP in ng/mL: 1, 5, 10, 50, 100, 250, 500, 1000, 2000.
# (§1) Data were normalized to a high control using the following equation: 100*(Sample—Low Control)/(High Control—Low Control), where the low control is the average of 16 samples treated with 1% DMSO, and the high control is the average of 16 samples treated with 30 μM of Compound Y depicted below. Data were fit using a 4-parameter fit (log(agonist) vs. response variable slope) using GraphPad Prism Software v.5. n=2 for all compounds. […] Compounds failing to elicit a minimum response of 50% are reported as >30 μM. For compounds run in duplicate or n higher than 2, the result herein given is the geometric mean of the several results obtained.
row,EC50 [nM],Compound
1,100 to 1000,COc1cc(-c2nc(N)c3c(n2)NC(=O)C3(C)C)nn1Cc1ccccc1F [Compound I-23]
2,> 1000,COCc1cc(-c2nc(N)c3c(n2)NC(=O)C3(C)C(N)=O)nn1Cc1ccccc1F (stereo not shown) [Compound I-22]
3,> 1000,CCOC(=O)C1(C)C(=O)Nc2nc(-c3cc(COC)n(Cc4ccccc4F)n3)nc(N)c21 (stereo not shown) [Compound I-21]

# More lines, now with the values behind:
row,Compound,EC50 [nM]
1,OC(Cn1nnc2cnc(-c3cc(-c4ccon4)n(Cc4ccccc4F)n3)nc21)(C(F)(F)F)C(F)(F)F [Compound I-3],> 1000
2,COC(=O)NS(=O)(=O)Nc1nc(-c2cc(-c3ccon3)n(Cc3ccccc3F)n2)nc2c1C(C)(C#N)C(=O)N2 (stereo not shown) [Compound I-5],100 to 1000
3,CCOC(=O)C1(C)C(=O)Nc2nc(-c3cc(C(C)=O)n(Cc4ccccc4F)n3)nc(N)c21 (stereo not shown) [Compound I-19],< 100
4,CC1(C)C(=O)Nc2nc(-c3cc(-c4ccon4)n(Cc4ccccc4F)n3)nc(NCCO)c21 [Compound I-6],100 to 1000
5,"COc1cc(-c2nc(N)c3c(n2)NC(=O)C3(C)c2nnc(C)o2)nn1Cc1ccccc1F (stereo not shown) [Compound I-1, 4-amino-2-(1-(2-fluorobenzyl)-5-methoxy-1H-pyrazol-3-yl)-5-methyl-5-(5-methyl-1,3,4-oxadiazol-2-yl)-5H-pyrrolo[2,3-d]pyrimidin-6(7H)-one]",< 100
6,CC1(C(=O)NCCO)C(=O)Nc2nc(-c3cc(-c4ccon4)n(Cc4ccccc4F)n3)nc(NCCO)c21 (stereo not shown) [Compound I-7],> 1000
7,"CC1(C(=O)NC2CC2)C(=O)Nc2nc(-c3ccn(Cc4ccccc4F)n3)nc(N)c21 (stereo not shown) [Compound I-14, 4-amino-N-cyclopropyl-2-(1-(2-fluorobenzyl)-1H-pyrazol-3-yl)-5-methyl-6-oxo-6,7-dihydro-5H-pyrrolo[2,3-d]pyrimidine-5-carboxamide]",> 1000
8,Fc1ccccc1Cn1nc(-c2ncc3[nH]nnc3n2)cc1-c1ccon1 [Compound I-15],> 1000
9,CCOC(=O)C1(C)C(=O)Nc2nc(-c3cc(-c4ccon4)n(Cc4ccccc4F)n3)ncc21 (stereo not shown) [Compound I-18],100 to 1000
10,CC(=O)c1cc(-c2nc(N)c3c(n2)NC(=O)C3(C)C(N)=O)nn1Cc1ccccc1F (stereo not shown) [Compound I-20],100 to 1000
11,CCOC(=O)C1(C)C(=O)Nc2nc(-c3cc(-c4ccon4)n(Cc4ccccc4F)n3)nc(Br)c21 (stereo not shown) [Compound I-17],100 to 1000
12,"CCOC(=O)C1(C)C(=O)Nc2nc(-c3ccn(Cc4ccccc4F)n3)nc(N)c21 (stereo not shown) [Compound I-13, ethyl 4-amino-2-(1-(2-fluorobenzyl)-1H-pyrazol-3-yl)-5-methyl-6-oxo-6,7-dihydro-5H-pyrrolo[2,3-d]pyrimidine-5-carboxylate]",100 to 1000
13,CC1(C)C(=O)N(CCO)c2nc(-c3cc(-c4ccon4)n(Cc4ccccc4F)n3)nnc21 [Compound I-4],> 1000
14,OCCn1nnc2cnc(-c3cc(-c4ccon4)n(Cc4ccccc4F)n3)nc21 [Compound I-2],> 1000

# Biological target: T2, sGC enzyme (Homo sapiens, UniProt Q02108+Q02153)
# T2 construct: host or cells: HEK293 expressing GloSensor 40F cGMP
# T2 sequence (Q02108 1-690): T1 sequence (Q02108 1-690)
# T2 sequence (Q02153 1-619): T1 sequence (Q02153 1-619)
# Test: cGMP GloSensor cell-based assay, 384-well format (Example 2B)
# Conditions: HEK293 GloSensor 40F cGMP cells, 10 μM DETA-NONOate; 50% of high control response (Compound Y); read-out: sGC_HEK_GloSensor EC50/IC50 Abs (Norm) (nM) Binned
# Description: as §1
# Human embryonic kidney cells (HEK293) cells expressing GloSensor™ 40F cGMP (Part No: CS182801, Promega) were used to evaluate the activity of test compounds. The luminescent biosensors (engineered luciferase) that were incorporated into these cells detect cGMP formed by the compounds stimulating the sGC enzyme and emit luminescence.
# cGMP GloSensor cells were maintained in Dulbecco's Modification of Eagle's Medium (DMEM) supplemented with fetal bovine serum (FBS) (10% final) and hygromycine (200 μg/ml). The day before assay, cells were plated in DMEM with 10% FBS in a 50 μL volume at a density of 1.5×10^4 cells/well in a poly-D-lysine coated 384-well flat white-bottom plate (Corning Cat No 35661). Cells were incubated overnight at 37° C. in a humidified chamber with 5% CO2. The next day, medium was removed and cells were replaced with 40 μl/well of GloSensor™, […] (Promega Cat No E1291). Cells were treated for 90 minutes at 25° C. to allow the substrate to equilibrate in the cells. Test compounds and Diethylenetriamine NONOate (DETA-NONOate) was diluted to […] in serum-free CO2 independent medium and serally diluted at 4× dilutions to create 5× dose curve from which 10 ul was added to the wells (x uM concentration for test compound solution and 10 μM concentration for DETA-NONOate solution; wherein x is one of the following final concentrations).
# For the kinetics studies, luminescense was measured right away for 0.2 sec per well with Envision (Perkin Elmer model No). For endpoint SAR screening, data were collected after 55 min incubation at room temperature.
# Data analysis was carried out as indicated above in Example 2A.
row,Compound,EC50 [nM]
1,"CC1(C)C(=O)Nc2nc(-n3cc(-c4ccon4)c(Cc4ccccc4F)n3)nc(N)c21 [Compound I-80, 4-amino-2-(3-(2-fluorobenzyl)-4-(isoxazol-3-yl)-1H-pyrazol-1-yl)-5,5-dimethyl-5H-pyrrolo[2,3-d]pyrimidin-6(7H)-one]",< 100
2,COc1nc(-c2ccn(Cc3ccccc3F)n2)nc2c1C(C)(C)C(=O)N2 [Compound I-78],> 1000
3,Cc1nc(-c2ccn(Cc3ccccc3F)n2)nc2c1C(C)(C)C(=O)N2 [Compound I-77],> 1000
4,COc1cc(-c2ncc3c(n2)NC(=O)C3(C)C)nn1Cc1cccc(Cl)c1 [Compound I-59],100 to 1000
5,COc1cn(-c2ncc3c(n2)NC(=O)C3(C)C)nc1Cc1ccccc1F [Compound I-38],< 100
6,COc1c(C)c(-c2nc(N)c3c(n2)NC(=O)C3(C)C)nn1Cc1ccccc1F [Compound I-41],100 to 1000
7,Cc1nc(-c2ncc3c(n2)NC(=O)C3(C)C)nn1Cc1ccccc1F [Compound I-89],> 1000
8,"COc1cc(-c2ncc3c(n2)N(C(=O)OC(C)(C)C)C(=O)C3(C)C)nn1Cc1ccccc1 [Compound I-54, 2-(1-benzyl-5-methoxy-1H-pyrazol-3-yl)-5,5-dimethyl-6-oxo-5H-pyrrolo-[2,3-d]pyrimidine-7(6H)-carboxylate]",100 to 1000
9,Cc1nc(-c2nc(O)c3c(n2)NC(=O)C3(C)C)nn1Cc1ccccc1F [Compound I-88],> 1000
10,CC1(C)C(=O)Nc2nc(-c3ccn(Cc4ccccc4F)n3)nc(O)c21 [Compound I-79],> 1000
11,CCCOc1cc(-c2ncc3c(n2)NC(=O)C3(C)C)nn1Cc1ccccc1F [Compound I-35],> 1000
12,CC1(C)C(=O)Nc2nnc(-c3cc(-c4ccon4)n(Cc4ccccc4F)n3)nc21 [Compound I-68],> 1000
13,COc1c(C)c(-c2ncc3c(n2)NC(=O)C3(C)C)nn1Cc1ccccc1F [Compound I-43],100 to 1000
14,COc1cc(-c2ncc3c(n2)NC(=O)C3(C)C)nn1Cc1ccc(C)cc1F [Compound I-63],< 100

# Reference: patent publication US10844064B2, “sGC stimulators” (Cyclerion Therapeutics, Inc., priority 2014, dated 2020)
